One assay has as its system A549. Kind of assay: Cytotoxicity against human A549 cells assessed as cell viability at 20 ug/ml by MTT assay. The assay is classed as functional, cell-based. The conditions noted are these: dose 20.0 µg/ml.
The next assay deals with A2058. Put plainly: Cytotoxicity against human A2058 cells assessed as cell viability at 20 ug/ml by MTT assay. In kind it is functional, cell-based. The settings on record: dose 20.0 µg/ml.
Assay [1] deals with HepG2. Kind of assay: Cytotoxicity against human HepG2 cells assessed as cell viability at 20 ug/ml by MTT assay. In kind it is functional, cell-based. The conditions noted are these: dose 20.0 µg/ml. Background: Formazan colour is commonly taken as a measure of viable cells.
A further assay has as its system MCF7. Kind of assay: Cytotoxicity against human MCF7 cells assessed as cell viability at 20 ug/ml by MTT assay. The assay is classed as functional, cell-based. The conditions noted are these: dose 20.0 µg/ml.
In another assay the test system is MIA PaCa-2. Kind of assay: Cytotoxicity against human MIA PaCa-2 cells assessed as cell viability at 20 ug/ml by MTT assay. The conditions noted are these: dose 20.0 µg/ml. In kind it is functional, cell-based.
Another assay relates to Staphylococcus aureus. Put plainly: Antimicrobial activity against methicillin sensitive Staphylococcus aureus assessed as bacterial growth inhibition. The assay is classed as functional, organism-based.
The next assay deals with Escherichia coli. Put plainly: Antimicrobial activity against Escherichia coli assessed as bacterial growth inhibition. In kind it is functional, organism-based.
Another assay concerns Acinetobacter baumannii. Kind of assay: Antimicrobial activity against Acinetobacter baumannii assessed as bacterial growth inhibition. The assay is classed as functional, organism-based.
The subject of a further assay is Nakaseomyces glabratus. Kind of assay: Antimicrobial activity against Candida glabrata assessed as fungal growth inhibition. The assay is classed as functional, organism-based.
A further assay relates to Candida albicans. Put plainly: Antimicrobial activity against Candida albicans assessed as fungal growth inhibition. The assay is classed as functional, organism-based.
The subject of the next assay is Pichia kudriavzevii. Kind of assay: Antimicrobial activity against Pichia kudriavzevii assessed as fungal growth inhibition. The assay is classed as functional, organism-based.
The next assay deals with Candida parapsilosis. Kind of assay: Antimicrobial activity against Candida parapsilosis assessed as fungal growth inhibition. The assay is classed as functional, organism-based.
The test system of another assay is Candida tropicalis. Put plainly: Antimicrobial activity against Candida tropicalis assessed as fungal growth inhibition. The assay is classed as functional, organism-based.
A further assay deals with Aspergillus fumigatus. Put plainly: Antimicrobial activity against Aspergillus fumigatus assessed as fungal growth inhibition. The assay is classed as functional, organism-based.
A further assay relates to N2a. Kind of assay: Cytotoxicity against mouse Neuro2a cells incubated for 24 hrs by absorbance based assay. The assay is classed as functional, cell-based.
The test system of assay [2] is HepG2. Put plainly: Cytotoxicity against human HepG2 cells incubated for 48 hrs by absorbance based assay. In kind it is functional, cell-based. The settings on record: HepG2, 48 h.

pIC50: −log10 of the molar value. Calls of active or inactive are those of the source. The rule behind the calls is not given here.

The source of these data is ChEMBL document CHEMBL5390293, “Additional Sarasinosides from the Marine Sponge Melophlus sarasinorum Collected from the Bismarck Sea” (J Nat Prod, 2023).

For `CC(=O)N[C@H]1[C@H](O[C@@H]2CO[C@@H](O[C@H]3CC[C@]4(C)C5=C(CC[C@H]4C3(C)C)[C@@H]3CC[C@H]([C@H](C)CC(=O)C=C(C)C)[C@@]3(C)CC5)[C@H](O[C@@H]3O[C@H](CO[C@@H]4OC[C@@H](O)[C@H](O)[C@H]4O)[C@@H](O)[C@H](O)[C@H]3NC(C)=O)[C@H]2O)O[C@H](CO)[C@H](O)[C@@H]1O`, the result in the assay on A549, with A2058, in the assay with HepG2 [1] and in the assay on MCF7 was inactive. The inhibition result in the assay on MIA PaCa-2, in the assay with Staphylococcus aureus, in the assay with Escherichia coli, in the assay on Acinetobacter baumannii, with Nakaseomyces glabratus and in the assay on Candida albicans was “inactive” throughout. The inhibition result with Pichia kudriavzevii, in the assay with Candida parapsilosis, in the assay with Candida tropicalis and with Aspergillus fumigatus was “inactive” throughout.
By pIC50 is commonly meant −log10 of the IC50, conventionally taken in molar units. A higher pIC50 goes with a low IC50. In the case of `CC(=O)N[C@H]1[C@H](O[C@@H]2CO[C@@H](O[C@H]3CC[C@]4(C)C5=C(CC[C@H]4C3(C)C)C3CC[C@H]([C@H](C)CC(=O)C=C(C)C)[C@@]3(C)CC5)[C@H](O[C@@H]3O[C@H](CO[C@@H]4OC[C@@H](O)[C@H](O)[C@H]4O[C@@H]4O[C@H](CO)[C@H](O)[C@@H](O)[C@H]4O)[C@@H](O)[C@H](O)[C@H]3NC(C)=O)[C@H]2O)O[C@H](CO)[C@H](O)[C@@H]1O` (some centres undefined), the negative-log IC50 (pIC50) in the assay on N2a is 5.24.
For `CO[C@H]1C[C@H]([C@H](C)CC(=O)C=C(C)C)[C@@]2(C)CC[C@@]3(O)C(=C12)CC[C@H]1C(C)(C)[C@@H](O[C@@H]2OC[C@@H](O[C@@H]4O[C@H](CO)[C@H](O)[C@H](O)[C@H]4NC(C)=O)[C@H](O)[C@H]2O[C@@H]2O[C@H](CO[C@@H]4OC[C@@H](O)[C@H](O)[C@H]4O)[C@@H](O)[C@H](O)[C@H]2NC(C)=O)CC[C@@]13C`, the outcome in the assay on A549, in the assay on A2058, in the assay on HepG2 [1] and in the assay with MCF7 was inactive. For the same compound, the inhibition result with MIA PaCa-2, in the assay on Staphylococcus aureus, with Escherichia coli, in the assay with Acinetobacter baumannii, in the assay with Nakaseomyces glabratus and with Candida albicans was “inactive” throughout. Moreover, the inhibition entry in the assay on Pichia kudriavzevii, in the assay on Candida parapsilosis, in the assay with Candida tropicalis and with Aspergillus fumigatus was “inactive” throughout.
Compound `CC(=O)N[C@H]1[C@H](O[C@@H]2CO[C@@H](O[C@H]3CC[C@]4(C)C5=CC[C@@]6(C)C(=C(CC[C@H]4C3(C)C)O5)CC[C@@H]6[C@H](C)CC(=O)C=C(C)C)[C@H](O[C@@H]3O[C@H](CO[C@@H]4OC[C@@H](O)[C@H](O)[C@H]4O[C@@H]4O[C@H](CO)[C@@H](O)[C@H](O)[C@H]4O)[C@@H](O)[C@H](O)[C@H]3NC(C)=O)[C@H]2O)O[C@H](CO)[C@H](O)[C@@H]1O` showed a pIC50 in the assay on HepG2 [2] of 5.23.
Take `CO[C@@H]1C[C@H]([C@H](C)CC(=O)C=C(C)C)[C@@]2(C)CC[C@@]3(O)C(=C12)CC[C@H]1C(C)(C)[C@@H](O[C@@H]2OC[C@@H](O[C@@H]4O[C@H](CO)[C@H](O)[C@H](O)[C@H]4NC(C)=O)[C@H](O)[C@H]2O[C@@H]2O[C@H](CO[C@@H]4OC[C@@H](O)[C@H](O)[C@H]4O)[C@@H](O)[C@H](O)[C@H]2NC(C)=O)CC[C@@]13C`: the outcome with A549, with A2058, in the assay with HepG2 [1] and with MCF7 was inactive. Also, the inhibition result in the assay with MIA PaCa-2, in the assay with Staphylococcus aureus, in the assay on Escherichia coli, in the assay on Acinetobacter baumannii, with Nakaseomyces glabratus and with Candida albicans was “inactive” each time. For the same compound, the inhibition result with Pichia kudriavzevii, in the assay on Candida parapsilosis, with Candida tropicalis and with Aspergillus fumigatus was “inactive” in each case.
